According to ChEMBL document CHEMBL6109070, “Fatty acid conjugated BimBH3 analogues with d‑amino acid substitution as PTPN1 inhibitors with enhanced activity, biostability and orally available potency for the treatment of diabetes” (Bioorg Med Chem, 2025):
pIC50, pKd: −log10 of the molar value.

Tests used:
[1] = target: T1, Tyrosine-protein phosphatase non-receptor type 1 (Homo sapiens, UniProt P18031); assay: Inhibition of recombinant human PTPN1 using p-nitrophenyl phosphate as substrate by spectrophotometric analysis
T1 sequence (P18031 whole entry): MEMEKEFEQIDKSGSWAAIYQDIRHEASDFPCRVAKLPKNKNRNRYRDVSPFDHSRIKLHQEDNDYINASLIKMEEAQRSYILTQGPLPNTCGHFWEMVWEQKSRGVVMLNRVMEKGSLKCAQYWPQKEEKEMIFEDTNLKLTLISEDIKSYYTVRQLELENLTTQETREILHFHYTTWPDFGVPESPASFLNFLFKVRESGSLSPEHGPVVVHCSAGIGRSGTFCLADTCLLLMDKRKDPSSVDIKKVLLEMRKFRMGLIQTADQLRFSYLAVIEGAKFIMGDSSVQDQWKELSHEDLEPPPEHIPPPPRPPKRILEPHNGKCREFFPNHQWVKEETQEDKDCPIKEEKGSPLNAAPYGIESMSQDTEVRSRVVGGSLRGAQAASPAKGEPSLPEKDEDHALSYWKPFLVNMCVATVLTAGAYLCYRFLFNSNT

[2] = target: T2, Tyrosine-protein phosphatase non-receptor type 1 (Homo sapiens) (UniProt P18031); assay: Binding affinity to PTPN1 (unknown origin) assessed as association rate constant (Kon) by Bio-Layer Interferometric analysis
T2 sequence (whole entry): T1 sequence (P18031 whole entry)

[3] = target: T2, Tyrosine-protein phosphatase non-receptor type 1 (Homo sapiens); assay: Binding affinity to PTPN1 (unknown origin) assessed as dissociation rate constant (Koff) by Bio-Layer Interferometric analysis
[4] = target: T1, Tyrosine-protein phosphatase non-receptor type 1; assay: Binding affinity to PTPN1 (unknown origin) assessed as equilibrium dissociation constant (Kd) by Bio-Layer Interferometric analysis
[5] = target: T2, Tyrosine-protein phosphatase non-receptor type 1 (Homo sapiens); assay: Binding affinity to PTPN1 (unknown origin) assessed as observed […] rate constant (Kobs) by Bio-Layer Interferometric analysis
proteinase K = assay: Proteolytic stability of compound assessed as proteinase K (unknown origin)-mediated drug degradation at 0.4 mM by measuring half life measured after 24 hrs by RP-HPLC analysis; format: ADME; settings: human
chymotrypsin = assay: Proteolytic stability of compound assessed as chymotrypsin (unknown origin)-mediated drug degradation at 0.6 mM by measuring half life measured after 24 hrs by RP-HPLC analysis; format: ADME; settings: human
pepsin = assay: Proteolytic stability of compound assessed as pepsin (unknown origin)-mediated drug degradation at 40 mM by measuring half life measured after 24 hrs by RP-HPLC analysis; format: ADME; settings: human
[6] = target: DPP-4 (dipeptidyl peptidase 4) (Homo sapiens, UniProt P27487); assay: Stability of compound assessed as DPP-4 (unknown origin)-mediated drug degradation by measuring half life measured for 10 mins by RP-HPLC analysis; format: ADME
[7] = Stability in rat plasma assessed as half life; format: ADME, cell-free
Mus musculus [8] = assay: Anti-diabetic activity in male Kunming mouse assessed as reduction in area under the curve of blood glucose at 0.05 microM/Kg, sc measured for 0 to 120 mins by GTT; format: functional; design: scale not given: the % may be the effect or the level left; settings: time 0-120 min, at 0.05 µmol/kg
Mus musculus [9] = assay: Anti-diabetic activity in male Kunming mouse assessed as reduction in area under the curve of blood glucose at 0.1 microM/Kg, sc measured for 0 to 120 mins by GTT; format: functional; design: scale not given: the % may be the effect or the level left; settings: time 0-120 min, at 0.1 µmol/kg
Mus musculus [10] = assay: Anti-diabetic activity in male Kunming mouse assessed as reduction in area under the curve of blood glucose at 0.2 microM/Kg, sc measured for 0 to 120 mins by GTT; format: functional; design: scale not given: the % may be the effect or the level left; settings: time 0-120 min, at 0.2 µmol/kg
Mus musculus [11] = assay: Anti-diabetic activity in male Kunming mouse assessed as reduction in area under the curve of blood glucose at 10 mg/kg, po measured for 0 to 180 mins by GTT; format: functional; design: scale not given: the % may be the effect or the level left; settings: time 0-180 min
Mus musculus [12] = assay: Anti-diabetic activity in male Kunming mouse assessed as reduction in area under the curve of blood glucose at 20 mg/kg, po measured for 0 to 180 mins by GTT; format: functional; design: scale not given: the % may be the effect or the level left; settings: time 0-180 min
Mus musculus [13] = assay: Anti-diabetic activity in male Kunming mouse assessed as reduction in area under the curve of blood glucose at 40 mg/kg, po measured for 0 to 180 mins by GTT; format: functional; design: scale not given: the % may be the effect or the level left; settings: time 0-180 min
[14] = Toxicity in male Kunming mouse assessed as reduction in body weight at 0.2 microM/Kg, sc administered daily for 7 days and measured on day 1; format: organism-based; settings: in vivo, 24 h, time 1 day
[15] = Toxicity in male Kunming mouse assessed as change in body weight at 0.2 microM/Kg, sc administered daily for 7 days and measured from day 2 to 7; format: organism-based; settings: in vivo, 144 h, time 6 day

DPP-4 (dipeptidyl peptidase 4), sequence (P27487 whole entry): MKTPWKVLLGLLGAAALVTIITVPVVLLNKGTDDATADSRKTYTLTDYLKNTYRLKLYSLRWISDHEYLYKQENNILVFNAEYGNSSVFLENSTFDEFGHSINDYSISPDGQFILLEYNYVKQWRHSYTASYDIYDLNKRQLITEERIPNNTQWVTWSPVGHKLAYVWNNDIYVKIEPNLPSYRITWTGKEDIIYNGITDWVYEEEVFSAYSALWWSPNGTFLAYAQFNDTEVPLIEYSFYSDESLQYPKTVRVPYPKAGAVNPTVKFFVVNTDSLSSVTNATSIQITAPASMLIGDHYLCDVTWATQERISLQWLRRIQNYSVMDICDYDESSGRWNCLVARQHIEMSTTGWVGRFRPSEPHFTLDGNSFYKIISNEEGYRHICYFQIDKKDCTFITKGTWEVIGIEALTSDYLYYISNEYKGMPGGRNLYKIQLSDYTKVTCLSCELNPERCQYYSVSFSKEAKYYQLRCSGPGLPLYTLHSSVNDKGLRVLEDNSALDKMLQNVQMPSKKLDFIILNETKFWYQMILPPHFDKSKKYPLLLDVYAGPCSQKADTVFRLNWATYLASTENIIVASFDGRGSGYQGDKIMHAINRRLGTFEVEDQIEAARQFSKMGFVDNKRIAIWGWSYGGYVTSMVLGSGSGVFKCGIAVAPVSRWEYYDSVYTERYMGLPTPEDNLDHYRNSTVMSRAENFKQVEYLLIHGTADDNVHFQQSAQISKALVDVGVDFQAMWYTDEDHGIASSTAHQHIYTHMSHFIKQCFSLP

Structure (SMILES) | pIC50 [1] | K [2] | K [3] | pKd [4] | Kobs [5] | half-life at 400 µM (proteinase K) | half-life at 600 µM (chymotrypsin) | half-life at 40000 µM (pepsin) | half-life [6] | half-life [7] | Activity (Mus musculus [8]) | Activity (Mus musculus [9]) | Activity (Mus musculus [10]) | Activity (Mus musculus [11]) | Activity (Mus musculus [12]) | Activity (Mus musculus [13]) | Activity [14] | Activity [15]
CCCCCCCCCCCCCCCC(=O)N[C@H](C(=O)N[C@@H](C(=O)N[C@@H](CCC(N)=O)C(=O)N[C@@H](CCC(=O)O)C(=O)N[C@@H](CC(C)C)C(=O)N[C@@H](CCCNC(=N)N)C(=O)N[C@@H](CCCNC(=N)N)C(=O)N[C@H](C(=O)NCC(=O)N[C@@H](CC(=O)O)C(=O)N[C@@H](CCC(=O)O)C(=O)N[C@@H](Cc1ccccc1)C(=O)O)[C@@H](C)CC)C(C)C)[C@@H](C)CC | 6.09 | 2.78 10^2/Ms | 5.85 10^-3/s | 5.68 | 6.14 10^-3No_unit | 12.3 h | 0.163 h | 1.17 h | 7.12 h | 70.7 h |  |  |  |  |  |  |  | 
CCCCCCCCCCCCCCCC(=O)N[C@H](C(=O)N[C@H](CCC(N)=O)C(=O)N[C@@H](CCC(N)=O)C(=O)N[C@@H](CCC(=O)O)C(=O)N[C@@H](CC(C)C)C(=O)N[C@@H](CCCNC(=N)N)C(=O)N[C@@H](CCCNC(=N)N)C(=O)N[C@H](C(=O)NCC(=O)N[C@@H](CC(=O)O)C(=O)N[C@@H](CCC(=O)O)C(=O)N[C@@H](Cc1ccccc1)C(=O)O)[C@@H](C)CC)[C@@H](C)CC | 5.38 |  |  |  |  |  |  |  |  |  |  |  |  |  |  |  |  | 
CCCCCCCCCCCCCCCC(=O)N[C@H](C(=O)N[C@@H](C)C(=O)N[C@@H](CCC(N)=O)C(=O)N[C@@H](CCC(=O)O)C(=O)N[C@@H](CC(C)C)C(=O)N[C@@H](CCCNC(=N)N)C(=O)N[C@H](CCCNC(=N)N)C(=O)N[C@H](C(=O)NCC(=O)N[C@@H](CC(=O)O)C(=O)N[C@@H](CCC(=O)O)C(=O)N[C@@H](Cc1ccccc1)C(=O)O)[C@@H](C)CC)[C@@H](C)CC | 5.78 |  |  |  |  |  |  |  |  |  |  |  |  |  |  |  |  | 
CCCCCCCCCCCCCCCC(=O)N[C@H](C(=O)N[C@H](Cc1ccc(O)cc1)C(=O)N[C@@H](CCC(N)=O)C(=O)N[C@@H](CCC(=O)O)C(=O)N[C@@H](CC(C)C)C(=O)N[C@@H](CCCNC(=N)N)C(=O)N[C@@H](CCCNC(=N)N)C(=O)N[C@H](C(=O)NCC(=O)N[C@@H](CC(=O)O)C(=O)N[C@@H](CCC(=O)O)C(=O)N[C@@H](Cc1ccccc1)C(=O)O)[C@@H](C)CC)[C@@H](C)CC | 6.34 | 4.4 10^2/Ms | 7.35 10^-5/s | 6.35 | 8.87 10^-3No_unit | 8.66 h | 0.115 h | 1.78 h | 13.6 h | 98.6 h |  |  |  |  |  |  |  | 
CCCCCCCCCCCCCCCC(=O)N[C@H](C(=O)N[C@H](CO)C(=O)N[C@@H](CCC(N)=O)C(=O)N[C@@H](CCC(=O)O)C(=O)N[C@@H](CC(C)C)C(=O)N[C@@H](CCCNC(=N)N)C(=O)N[C@@H](CCCNC(=N)N)C(=O)N[C@H](C(=O)NCC(=O)N[C@@H](CC(=O)O)C(=O)N[C@@H](CCC(=O)O)C(=O)N[C@@H](Cc1ccccc1)C(=O)O)[C@@H](C)CC)[C@@H](C)CC | 5.36 |  |  |  |  |  |  |  |  |  |  |  |  |  |  |  |  | 
CCCCCCCCCCCCCCCC(=O)N[C@H](C(=O)N[C@@H](C)C(=O)N[C@@H](CCC(N)=O)C(=O)N[C@@H](CCC(=O)O)C(=O)N[C@@H](CC(C)C)C(=O)N[C@@H](CCCNC(=N)N)C(=O)N[C@@H](CCCNC(=N)N)C(=O)N[C@@H](C(=O)NCC(=O)N[C@@H](CC(=O)O)C(=O)N[C@@H](CCC(=O)O)C(=O)N[C@@H](Cc1ccccc1)C(=O)O)[C@@H](C)CC)[C@@H](C)CC | 6.53 | 1.65 10^3/Ms | 2.5 10^-5/s | 7.82 | 3.31 10^-2No_unit | 8.87 h | 0.712 h | 1.42 h | 2.87 h | 101 h | 7.1% | 15.6% | 26.2% | 4.6% | 8% | 15.4% | ~ 1 g | Non-toxic
CCCCCCCCCCCCCCCC(=O)N[C@H](C(=O)N[C@@H](C)C(=O)N[C@@H](CCC(N)=O)C(=O)N[C@@H](CCC(=O)O)C(=O)N[C@@H](CC(C)C)C(=O)N[C@@H](CCCNC(=N)N)C(=O)N[C@@H](CCCNC(=N)N)C(=O)N[C@H](C(=O)NCC(=O)N[C@@H](CC(=O)O)C(=O)N[C@@H](CCC(=O)O)C(=O)N[C@@H](Cc1ccccc1)C(=O)O)[C@@H](C)CC)[C@@H](C)CC |  | 2.35 10^2/Ms | 6.65 10^-3/s | 5.55 | 7.3 10^-3No_unit | 2.65 h | 0.556 h | 2.7 h | 3.68 h | 10.6 h |  |  |  |  |  |  |  | 
CCCCCCCCCCCCCCCC(=O)N[C@H](C(=O)N[C@H](Cc1cnc[nH]1)C(=O)N[C@@H](CCC(N)=O)C(=O)N[C@@H](CCC(=O)O)C(=O)N[C@@H](CC(C)C)C(=O)N[C@@H](CCCNC(=N)N)C(=O)N[C@@H](CCCNC(=N)N)C(=O)N[C@H](C(=O)NCC(=O)N[C@@H](CC(=O)O)C(=O)N[C@@H](CCC(=O)O)C(=O)N[C@@H](Cc1ccccc1)C(=O)O)[C@@H](C)CC)[C@@H](C)CC | 6.06 |  |  |  |  | 3.79 h | 2.9 h | 1.14 h |  |  |  |  |  |  |  |  |  | 
CCCCCCCCCCCCCCCC(=O)N[C@H](C(=O)N[C@H](C)C(=O)N[C@@H](CCC(N)=O)C(=O)N[C@@H](CCC(=O)O)C(=O)N[C@@H](CC(C)C)C(=O)N[C@@H](CCCNC(=N)N)C(=O)N[C@@H](CCCNC(=N)N)C(=O)N[C@H](C(=O)NCC(=O)N[C@@H](CC(=O)O)C(=O)N[C@@H](CCC(=O)O)C(=O)N[C@@H](Cc1ccccc1)C(=O)O)[C@@H](C)CC)[C@@H](C)CC | 6.40 | 3.27 10^2/Ms | 1.46 10^-4/s | 6.78 | 6.69 10^-3No_unit | 15 h | 1.72 h | 2.42 h | 3.61 h | 102 h |  |  |  |  |  |  |  | 
CCCCCCCCCCCCCCCC(=O)N[C@H](C(=O)N[C@@H](C)C(=O)N[C@H](CCC(N)=O)C(=O)N[C@@H](CCC(=O)O)C(=O)N[C@@H](CC(C)C)C(=O)N[C@@H](CCCNC(=N)N)C(=O)N[C@@H](CCCNC(=N)N)C(=O)N[C@H](C(=O)NCC(=O)N[C@@H](CC(=O)O)C(=O)N[C@@H](CCC(=O)O)C(=O)N[C@@H](Cc1ccccc1)C(=O)O)[C@@H](C)CC)[C@@H](C)CC | 6.07 |  |  |  |  | 3.21 h | 1.86 h | 1.13 h | 1.42 h |  |  |  |  |  |  |  |  | 
CCCCCCCCCCCCCCCC(=O)N[C@H](C(=O)N[C@H](CCCCN)C(=O)N[C@@H](CCC(N)=O)C(=O)N[C@@H](CCC(=O)O)C(=O)N[C@@H](CC(C)C)C(=O)N[C@@H](CCCNC(=N)N)C(=O)N[C@@H](CCCNC(=N)N)C(=O)N[C@H](C(=O)NCC(=O)N[C@@H](CC(=O)O)C(=O)N[C@@H](CCC(=O)O)C(=O)N[C@@H](Cc1ccccc1)C(=O)O)[C@@H](C)CC)[C@@H](C)CC | 5.67 |  |  |  |  |  |  |  |  |  |  |  |  |  |  |  |  | 
